Consider one molecule from article PMC8745345, “Hydroxy Pentacyclic Triterpene Acid, Kaempferol, Inhibits the Human 5-Hydroxytryptamine Type 3A Receptor Activity” (International Journal of Molecular Sciences, 2022).

Holding throughout (assay type): cell-based
The target in experiment [1] is T1, human 5-HT3A receptor T154A mutant (Homo sapiens, UniProt P46098, T176A).
T1 sequence (P46098 24-478 T176A): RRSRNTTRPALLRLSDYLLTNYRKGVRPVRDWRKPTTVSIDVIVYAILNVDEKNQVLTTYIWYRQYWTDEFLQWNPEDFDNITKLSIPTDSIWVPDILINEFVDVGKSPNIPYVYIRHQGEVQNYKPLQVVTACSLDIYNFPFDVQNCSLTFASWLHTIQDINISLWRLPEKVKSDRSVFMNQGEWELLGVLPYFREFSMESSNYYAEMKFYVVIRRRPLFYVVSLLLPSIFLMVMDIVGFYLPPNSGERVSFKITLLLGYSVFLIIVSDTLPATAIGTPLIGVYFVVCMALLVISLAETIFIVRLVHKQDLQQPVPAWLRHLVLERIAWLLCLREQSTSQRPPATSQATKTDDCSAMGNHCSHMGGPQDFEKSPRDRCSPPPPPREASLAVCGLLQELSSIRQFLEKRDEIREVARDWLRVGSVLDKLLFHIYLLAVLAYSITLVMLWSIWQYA
As to the kind of experiment: Two-electrode voltage clamp, I5-HT inhibition, T154A mutant. Particulars: −80 mV.
Protocol: (§1) Xenopus oocytes were used in this study as cells for expression of human 5-HT3A receptor. All female frogs used in this experiment were obtained from the Korean Xenopus Resource Center for Research (KXRCR000001). […] Xenopus oocytes were extracted during ice incubation state and isolated as single oocytes using collagenase II (2 mg/mL) in OR2 buffer (82.5 mM NaCl, 2 mM KCl, 1 mM MgCl2, 5 mM HEPES, pH 7.4). Isolated oocytes were incubated with ND96 incubation buffer (96 mM NaCl, 2 mM KCl, 1 mM MgCl2, 1.8 mM CaCl2, 5 mM HEPES, 2.5 mM sodium pyruvate, and 50 mg/mL gentamycin, pH 7.4) at 18 °C until the experiment was performed. Human 5-HT3A receptor mRNA was injected into oocytes using a nanoinjector (Drummond Scientific, Broomall, PA, USA) with a mineral-filled 10 μL microdispenser (VWR, Piscataway, NJ, USA).
(§2) To confirm the KAE activity on the human 5-HT3A receptor, a two-electrode voltage clamp (OC-725C; Warner Instruments, Hamden, CT, USA) with a Digitata 1550A was used. For the experiment, induced-inward current was converted to digital data with pClamp 10 software (Axon Instruments, Union City, CA, USA). All experiments were performed at room temperature using an oocyte clamp equipped with Digidata. The membrane holding potential was −80 mV.
(§3) The voltage relationship experiment for confirming the relationship between induce-inward current and voltage, the voltage was varied from −80 mV to +60 mV using a ramp protocol. […] All recording data were analyzed using Clampfit 9.0 (Molecular Devices, San Jose, CA, USA). […]
(§4) All presented experiments were performed at least three times for scientific verification. […] Induced-inward current data were analyzed with SigmaPlot 10.0 software (Systat Software, Inc., San Jose, CA, USA). […]

Experiment [2] addresses T2, human 5-HT3A receptor W63A mutant (Homo sapiens, UniProt P46098, W85A).
T2 sequence (P46098 24-478 W85A): T1 sequence (P46098 24-478 T176A) with W62A, A153T
As to the kind of experiment: Two-electrode voltage clamp, I5-HT inhibition, W63A mutant. Conditions: −80 mV. A general note: Two-electrode voltage clamp holds a large cell at a set potential and records current.
Protocol: as §1, §2, §3, §4

Experiment [3] deals with T3, human 5-HT3A receptor E209A mutant (Homo sapiens, UniProt P46098, E231A).
T3 construct: expressed in transfected cells; host or cells: Xenopus oocytes injected with mutant mRNA
T3 sequence (P46098 24-478 E231A): T1 sequence (P46098 24-478 T176A) with A153T, E208A
As to the kind of experiment: Two-electrode voltage clamp, I5-HT inhibition, E209A mutant. The procedure: Human 5-HT3A receptor cDNA was linearized using restriction enzyme XhoI. In vitro transcription was performed using an mMESSAGE mMACHINE T7 Transcription Kit (Thermo Fisher Scientific, Waltham, MA, USA). The final mRNA product was dissolved in 1X Diethyl Pyrocarbonate (RNase-free water) at a final concentration of 1 μg/μL and kept in a deep-freezer at −80 °C until used.
Xenopus oocytes were used in this study as cells for expression of human 5-HT3A receptor. All female frogs used in this experiment were obtained from the Korean Xenopus Resource Center for Research (KXRCR000001). […] Isolated oocytes were incubated with ND96 incubation buffer (96 mM NaCl, 2 mM KCl, 1 mM MgCl2, 1.8 mM CaCl2, 5 mM HEPES, 2.5 mM sodium pyruvate, and […], pH 7.4) at 18 °C until the experiment was performed. Human 5-HT3A receptor mRNA was injected into oocytes using a nanoinjector (Drummond Scientific, Broomall, PA, USA) with a mineral-filled 10 μL microdispenser (VWR, Piscataway, NJ, USA).
For the experiment, induced-inward current was converted to digital data with pClamp 10 software (Axon Instruments, Union City, CA, USA). All experiments were performed at room temperature using an oocyte clamp equipped with Digidata. The membrane holding potential was −80 mV.
The voltage relationship experiment for confirming the relationship between induce-inward current and voltage, the voltage was varied from −80 mV to +60 mV using a ramp protocol. Each microelectrode was filled with 3 M KCl having a resistance of 0.2 MΩ. Serotonin and KAE applied in the experiment were diluted in ND96 bath solution (96 mM NaCl, 2 mM KCl, 1 mM MgCl2, 1.8 mM CaCl2, and 5 mM HEPES, pH 7.5) to specified concentration. The rate of application of the reagent was 2 mL per minute. All recording data were analyzed using Clampfit 9.0 (Molecular Devices, San Jose, CA, USA). […]
All presented experiments were performed at least three times for scientific verification. […] Induced-inward current data were analyzed with SigmaPlot 10.0 software (Systat Software, Inc., San Jose, CA, USA).

Residue numbers refer to the chain shown, from its start.

Regarding `O=c1c(O)c(-c2ccc(O)cc2)oc2cc(O)cc(O)c12` [KAE, kaempferol], the IC50 came out at 33.4 ± 7.9 µM in experiment [1], 33.7 ± 5.7 µM in experiment [2] and 55.1 ± 5.8 µM in experiment [3]. The Vmax in experiment [1] was 73.5 ± 9.4%; in experiment [2] it was 76.3 ± 10.7%; in experiment [3] (E209A, −80 mV) it was 81.1 ± 9.7%. Further, the “n (Hill coefficient)” value in experiment [1] stood at 1.1 ± 0.4; in experiment [2] it was 1.3 ± 0.5; in experiment [3] (E209A, −80 mV), 1.7 ± 0.6.

By IC50 is commonly meant the concentration that gives 50% inhibition. A lower IC50 goes with greater potency.
